Assay in all cases: relative viability (nuclei count vs DMSO), 5 days (fraction); higher = more cells survive
Compound in the test “Vismodegib + Pemetrexed”: CS(=O)(=O)c1ccc(C(=O)Nc2ccc(Cl)c(-c3ccccn3)c2)c(Cl)c1 [Vismodegib] + Nc1nc2[nH]cc(CCc3ccc(C(=O)N[C@@H](CCC(=O)O)C(=O)O)cc3)c2c(=O)[nH]1 [Pemetrexed] (partner 0.2 µM)
The method, boiled down: (§1)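 For relative viability, nuclei counts in treated wells were divided by those in vehicle wells. Lung cancer cell lines had been pin-tool dosed in 1536-well plates the day after seeding and cultured for 5 days, then fixed and stained in one step (final 0.05% Triton X-100, 1% formaldehyde, 1 ug/ml Hoechst) and imaged at 4×. Doses were one drug alone or a fixed anchor-drug dose plus five library-drug doses (not always all listed) in √10 steps, and values are duplicate-plate medians.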

Compound in the test “Ruxolitinib + Pemetrexed”: N#CC[C@H](C1CCCC1)n1cc(-c2ncnc3[nH]ccc23)cn1 [Ruxolitinib] + Nc1nc2[nH]cc(CCc3ccc(C(=O)N[C@@H](CCC(=O)O)C(=O)O)cc3)c2c(=O)[nH]1 [Pemetrexed] (partner 0.2 µM)
The method, boiled down:
as §1

Compound in the test “Vismodegib + Palbociclib”: CS(=O)(=O)c1ccc(C(=O)Nc2ccc(Cl)c(-c3ccccn3)c2)c(Cl)c1 [Vismodegib] + CC(=O)c1c(C)c2cnc(Nc3ccc(N4CCNCC4)cn3)nc2n(C2CCCC2)c1=O [Palbociclib] (partner 0.5 µM)
The method in brief: as §1

Compound in the test “Vismodegib + Luminespib”: CS(=O)(=O)c1ccc(C(=O)Nc2ccc(Cl)c(-c3ccccn3)c2)c(Cl)c1 [Vismodegib] + CCNC(=O)c1noc(-c2cc(C(C)C)c(O)cc2O)c1-c1ccc(CN2CCOCC2)cc1 [Luminespib] (partner 0.01 µM)
The method in brief: as §1

For the cell line UMC-11, the relative viability in the test with Vismodegib + Pemetrexed (first compound 0.08 µM) was 0.61; with Vismodegib + Pemetrexed (first compound 0.253 µM) it was 0.807; with Vismodegib + Pemetrexed (first compound 0.8 µM), 0.768; with Vismodegib + Pemetrexed (first compound 2.53 µM), 0.739; with Vismodegib + Pemetrexed (first compound 8 µM), 0.868; with Ruxolitinib + Pemetrexed (first compound 0.08 µM), 0.795. The relative viability stood at 0.777 with Ruxolitinib + Pemetrexed (first compound 0.253 µM); 0.757 with Ruxolitinib + Pemetrexed (first compound 0.8 µM); 0.924 in the test with Ruxolitinib + Pemetrexed (first compound 2.53 µM); 0.786 in the test with Ruxolitinib + Pemetrexed (first compound 8 µM); 0.343 in the test with Vismodegib + Palbociclib (first compound 0.08 µM); 0.346 in the test with Vismodegib + Palbociclib (first compound 0.253 µM). The relative viability with Vismodegib + Palbociclib (first compound 0.8 µM) was 0.298; in the test with Vismodegib + Palbociclib (first compound 2.53 µM) it was 0.351; in the test with Vismodegib + Palbociclib (first compound 8 µM), 0.344; with Vismodegib + Luminespib (first compound 0.08 µM), 0.937; with Vismodegib + Luminespib (first compound 0.253 µM), 0.966; with Vismodegib + Luminespib (first compound 0.8 µM), 1.01. Further, the relative viability with Vismodegib + Luminespib (first compound 2.53 µM) was found to be 0.933; with Vismodegib + Luminespib (first compound 8 µM), 1.04.

The values are drawn from the supplement of paper PMC10307832.
